The assay has as its system Acidovorax delafieldii (ATCC #17505). Description: Bactericidal properties of silver nanofluids, colony count on NB agar plates. The format is cell-based. The procedure: The addition of nanostructures to fluids can prevent bacterial growth. The bactericidal properties of spherical silver colloid and silver nanorods was measured and compared with the bactericidal properties of silver nitrate. Lyophilized Acidovorax delafieldii (ATCC #17505) bacterium was reconstituted in Difco Nutrient Broth (NB), streaked onto NB agar plates and incubated for 24 hours at 37° C. A single colony was isolated and used to inoculate an NB culture that was grown to mid-log phase where the visibly cloudy solution has an optical density of 0.3 at a wavelength of 600 nm. 10 μL of this preculture (˜2.3×10^4 CFU/mL) was mixed with 5 mL of NB medium that contained 0.2 mg/mL, 0.02 mg/mL, 2 μg/mL, 0.02 μg/mL, and 0.002 μg/mL concentrations of either silver nitrate (AgNO3), silver colloid, or silver nanorods. […] Viable cells were enumerated by the colony count method on NB agar plates.

On to `O=[N+]([O-])[O-].[Ag+]` [AgNO3, silver nitrate], for which the “biocide activity compared with other silver samples” value (28 hours, 37° C.) is given as “highest biocide activity”. Further, the CFU/mL (Acidovorax delafieldii in NB after 28 hours of incubation at 37° C., sample concentration as in Sample cell (text: 0.2 μg/mL Ag)) is 1.2 × 10^3 CFU/mL.
